In the supplement of paper PMC8967900:

Assays:
Assay in all cases: selective drug sensitivity score (sDSS, relative to normal bone marrow) (sDSS (score)); higher = more potent and effective on the cell line relative to normal bone marrow cells
Details in all cases: 72 h
ALL-PO = test system: ALL-PO
ALL-SIL = test system: ALL-SIL
CCRF-HSB2 = test system: CCRF-HSB2
COG-LL-317 = test system: COG-LL-317
COG-LL-394h = test system: COG-LL-394h
COG-LL-402h = test system: COG-LL-402h
DND-41 = test system: DND-41
HAL-01 = test system: HAL-01
HPB-ALL = test system: HPB-ALL
KASUMI-10 = test system: KASUMI-10
KASUMI-2 = test system: KASUMI-2
KOPN-8 = test system: KOPN-8
MHH-CALL-2 = test system: MHH-CALL-2
MHH-CALL-4 = test system: MHH-CALL-4
MOLT-16 = test system: MOLT-16
P12-ICHIKAWA = test system: P12-ICHIKAWA
RCH-ACV = test system: RCH-ACV
RPMI-8402 = test system: RPMI-8402
SEM cells = test system: SEM cells
SUP-B15 = test system: SUP-B15
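Also: ALL cell lines in 384-well plates, five doses spanning 10,000-fold, each plate scaled between vehicle and 100 µmol/L benzalkonium chloride controls, sDSS an adapted area-under-curve metric.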

Compound	selective drug sensitivity score (ALL-PO)	selective drug sensitivity score (ALL-SIL)	selective drug sensitivity score (CCRF-HSB2)	selective drug sensitivity score (COG-LL-317)	selective drug sensitivity score (COG-LL-394h)	selective drug sensitivity score (COG-LL-402h)	selective drug sensitivity score (DND-41)	selective drug sensitivity score (HAL-01)	selective drug sensitivity score (HPB-ALL)	selective drug sensitivity score (KASUMI-10)	selective drug sensitivity score (KASUMI-2)	selective drug sensitivity score (KOPN-8)	selective drug sensitivity score (MHH-CALL-2)	selective drug sensitivity score (MHH-CALL-4)	selective drug sensitivity score (MOLT-16)	selective drug sensitivity score (P12-ICHIKAWA)	selective drug sensitivity score (RCH-ACV)	selective drug sensitivity score (RPMI-8402)	selective drug sensitivity score (SEM cells)	selective drug sensitivity score (SUP-B15)
CC1=NN(c2ccc(C(=O)O)cc2)C(=O)C1=Cc1ccc(-c2cc(C)c(C)cc2[N+](=O)[O-])o1 [C646] (top concentration 25000 nM)	5.04	6.14	3.14	1.74	-0.66	-0.16	2.94	-2.06	5.74	-0.36	15.1	2.44	-2.06	-2.06	4.84	-2.06	1.94	-2.06	-0.26	5.04
Cc1cc(-c2nc(-c3ccc(OC(F)(F)F)cc3)no2)nn1Cc1ccnc(N2CCN(C3CC3)CC2)c1 [BAY_87-2243] (top concentration 1000 nM)	5.54	10.1	14.9	-0.96	23.5	-3.16	6.84	-0.66	8.54	-6.66	-8.66	6.34	8.64	11.9	22.9	23.9	14.4	28	6.84	14.1
Cc1cc(C(C)Nc2ccccc2)c2nc(N3CCOCC3)cc(=O)n2c1 (stereo not given) [TGX-221] (top concentration 10000 nM)	1.16	-1.64	2.36	-1.64	-1.24	1.76	-1.64	7.86	-1.64	-1.64	-1.64	-1.64	5.16	-1.44	-1.34	-1.64	13.5	-0.04	5.46	0.36
Cc1ncc(-c2ccnc(Nc3ccc(S(C)(=O)=O)cc3)n2)n1C(C)C [AZD-5438] (top concentration 10000 nM)	-6.06	-3.86	1.34	-0.56	-5.86	-0.46	-2.06	-5.96	-5.06	6.04	-0.86	5.24	-1.06	-6.86	5.44	-0.36	2.44	-0.76	2.34	9.74
Cc1nc(Nc2ncc(C(=O)Nc3c(C)cccc3Cl)s2)cc(N2CCN(CCO)CC2)n1 [Dasatinib] (top concentration 1000 nM)	-0.2	41.4	37.8	-0.7	0.3	16.8	1.4	-2.8	-2.8	-2.8	-2.8	0.4	-2.8	-2.8	-2.8	-1.7	21.5	-0.8	-2.4	30.2
CCN1C(=O)CNc2ncc(-c3ccc(-c4nc[nH]n4)nc3C)nc21 [CC-115] (top concentration 10000 nM)	4.34	1.34	2.64	0.54	-2.06	3.44	6.74	2.54	1.84	0.14	5.74	17.5	8.34	7.34	4.74	1.04	17.5	0.94	0.04	2.34
Sc1ncnc2nc[nH]c12 [Mercaptopurine] (top concentration 10000 nM)	14.9	14.8	12.6	23.7	0.5	6.6	11.1	12.4	14.9	6.9	12.4	14.9	13.4	11.1	16.9	9.6	14.2	9.2	12.6	12.7
CC1(C)OCCn2c1nc1c(N3CCOCC3)nc(-c3cnc(N)nc3)nc12 [GDC-0084] (top concentration 10000 nM)	11.8	4.8	6.1	3.1	-0.3	7.5	1.8	11	3.2	3.9	6	13.2	11.2	10.7	6.8	4.1	20.8	5.1	14.4	5.1
CN1CC[C@H](c2c(O)cc(O)c3c(=O)cc(-c4ccccc4Cl)oc23)[C@H](O)C1 [Alvocidib] (top concentration 10000 nM)	-6.7	-3.3	2.2	1.7	-2.5	-2.1	-4.1	-3.5	-3.1	-2.9	-2.8	-1.2	-3.5	-3.8	0.7	-2.1	2.7	-1	-3.5	0.1
CNCc1ccc(-c2[nH]c3cc(F)cc4c3c2CCNC4=O)cc1 [Rucaparib] (top concentration 10000 nM)	-0.58	0.22	1.22	6.52	0.92	2.42	-0.38	4.32	-0.58	1.12	3.02	5.12	9.02	5.92	2.72	-0.58	1.02	0.32	2.72	5.42
Nc1ncn([C@@H]2O[C@H](CO)[C@@H](O)[C@H]2O)c(=O)n1 [Azacitidine] (top concentration 10000 nM)	6.94	5.94	-0.56	7.74	-2.26	1.74	2.14	3.84	7.94	3.64	-0.36	8.74	5.84	6.14	7.14	3.74	5.24	3.34	8.74	11.6
COc1ccccc1S(=O)(=O)Nc1ccc2c(c1)CN(C)C(=O)N2 [PFI-1] (top concentration 30000 nM)	2.7	2	1	2.5	0.3	3.1	2.3	0.3	1	3.5	2.4	17.3	3.5	2.7	8.6	0.8	5.4	2.5	4.7	8.5
CS(=O)(=O)c1ccc(C(=O)Nc2ccc(Cl)c(-c3ccccn3)c2)c(Cl)c1 [Vismodegib] (top concentration 10000 nM)	3.56	0.36	-1.14	-1.14	-1.14	-1.14	2.76	-1.14	0.76	-1.14	3.96	6.76	2.86	0.16	-1.14	-1.14	3.46	-1.14	2.06	11.3
CCc1nc(C(N)=O)c(Nc2ccc(N3CCC(N4CCN(C)CC4)CC3)c(OC)c2)nc1NC1CCOCC1 [Gilteritinib] (top concentration 1000 nM)	2.28	-2.52	0.08	-2.52	1.78	1.58	-2.52	-1.82	-1.62	10.4	-2.52	3.08	-1.32	-2.52	-2.52	-2.52	2.58	-1.32	4.38	-2.42
O=C(Nc1cccc(Nc2ncc(Br)c(NCCc3cnc[nH]3)n2)c1)N1CCCC1 [BX-912] (top concentration 10000 nM)	14	9.36	9.66	9.46	-2.24	6.16	2.56	-3.64	-0.34	12.8	5.86	12.4	2.86	3.06	9.06	10.2	13.3	3.36	13.4	11.9
Cc1ccc(C(=O)Nc2cccc(C(F)(F)F)c2)cc1Nc1nc(-c2cccnc2)nc2c1cnn2C [NVP-BHG712] (top concentration 10000 nM)	2.48	13.3	10.3	1.48	-2.32	-2.32	5.38	2.98	0.18	3.38	2.38	7.78	5.28	1.18	3.68	3.08	7.78	5.08	2.48	7.98
COc1ccc(S(=O)(=O)Nc2cccnc2Nc2ccc(O)cc2)cc1 [ABT-751] (top concentration 10000 nM)	13.3	17.6	13	11.4	3.72	8.92	6.12	11.7	13.2	8.12	4.72	14.6	12.6	3.52	12.6	10.4	11.7	11.9	14.7	10.8
Nc1ncnc2c1nc(Cl)n2[C@@H]1O[C@H](CO)[C@@H](O)[C@H]1O [8-chloro-adenosine] (top concentration 50000 nM)	1.6	-3.4	3.6	6	5.1	3.1	-3.9	-1.5	-4.8	7.5	-1.8	5.9	2.4	1.6	7.1	-2.4	1.4	-0.9	7.1	7.3
N[C@@H]1CCCN(c2c(/C=C3\SC(=O)NC3=O)cccc2-c2ccccc2)C1 [AZD1208] (top concentration 10000 nM)	8.5	0.7	6.5	-4.4	1	-4.4	-1.3	6.3	-4.4	-4.4	-4.4	7.4	3.7	3.9	-4.4	-4	0.6	-3.1	-4.4	-4.4
